Measurements reported in BigSolDB 2.1.

Nc1cccc(S(=O)(=O)c2cccc(N)c2)c1
solubility (mole fraction)
Conditions	283.15 K	288.15 K	293.15 K	298.15 K	303.15 K	308.15 K	313.15 K	318.15 K	323.15 K	328.15 K
in 1,4-dioxane	0.00411	0.00462	0.00538	0.00652	0.0083	0.0102	0.0123	0.0147	0.0169	0.0194
in DMF	0.0869	0.0916	0.0989	0.11	0.12	0.132	0.146	0.162	0.181	0.2
in acetonitrile	0.00609	0.00709	0.0087	0.0105	0.0127	0.0151	0.0182	0.0225	0.0272	0.033
in cyclohexane	2.7e-06	3.6e-06	5.1e-06	7.7e-06	1.09e-05	1.51e-05	2.03e-05	2.78e-05	3.7e-05	4.86e-05
in ethanol	0.00237	0.00256	0.00297	0.00349	0.00415	0.00492	0.00574	0.00661	0.00738	0.00837
in ethyl acetate	0.0146	0.0162	0.0184	0.021	0.0243	0.0278	0.0321	0.037	0.0424	0.0485
in ethylene glycol	0.00458	0.00515	0.00595	0.00701	0.00843	0.0101	0.012	0.0144	0.0168	0.0194
in isobutanol	0.000586	0.000665	0.000784	0.000952	0.00115	0.00137	0.00166	0.002	0.00234	0.00271
in isopropanol	0.00106	0.00121	0.00148	0.00196	0.00258	0.00326	0.00406	0.005	0.00611	0.00731
in methanol	0.00319	0.00351	0.00397	0.00482	0.00604	0.00744	0.00905	0.0107	0.0125	0.0152
in n-butanol	0.00109	0.00121	0.00142	0.00171	0.00205	0.00246	0.00294	0.00343	0.00396	0.00452
in n-heptanol	0.000699	0.000776	0.000898	0.00106	0.0013	0.0016	0.002	0.00242	0.0029	0.00346
in n-propanol	0.00142	0.00152	0.00177	0.00214	0.00254	0.00301	0.00356	0.00418	0.00496	0.0059
in water	1.52e-05	1.9e-05	2.51e-05	3.32e-05	4.29e-05	5.62e-05	7.79e-05	0.000106	0.000145	0.000198
